Assay results as given in patent US20170151204A1 (priority 2011, published 2017).
Entries after “also recorded” stand apart in the source; their conditions may differ.

Columns and labels:
[1] = system: Influenza A/PR/8/34 H1N1 (IAV); type: cell-based; settings: MEF, IAV 0.1 m.o.i., 24 hours, LTB4 100 nM, NacMDP 0.1 μg/ml (FIG. 39)
IPS-1 = assay: IPS-1-dependent promoter activation assay (luciferase) in BLT1-expressing HEK-293T cells; type: cell-based; settings: IPS-1-expressing vector
[2] = system: mouse embryonic fibroblasts (MEFs); assay: IFNβ secretion by wild type mouse embryonic fibroblasts; type: cell-based; settings: MEFs from wild type mice, LTB4 alone or with Sendai virus (FIG. 36)
human neutrophils [3] = assay: Cy3-CpG-ODN binding assay on human neutrophils (flow cytometry); type: cell-based; settings: LTB4 pretreatment 60 min, then Cy3-CpG-ODN 2216 for 4 h; with or without inhibitory CpG-ODN (FIG. 4E-F)
Experimental: (§1) In FIG. 4A, cells were left untreated (dotted line) or were stimulated with LTB4 (100 nM) for 15, 30, 60 or 120 min. Background cellular autofluorescence is represented by shaded histogram. Cells were then fixed in paraformaldehyde, permeabilized in methanol, and TLR9 expression was assessed by flow cytometry. In FIG. 4B, cells were pre-treated for 30 min with the high affinity LTB4 receptor antagonist U75302 (10 μM) prior to stimulation with LTB4 for 60 min. Cells were then fixed in paraformaldehyde, permeabilized in methanol, and TLR9 expression was assessed by flow cytometry. In FIGS. 4C-D, cells were stimulated with LTB4 or leukotrienes C4 (LTC4), leukotriene D4 (LTD4), the complement protein C5a or IL-8 for 60 min. Cells were then fixed in paraformaldehyde, permeabilized in methanol, and TLR9 expression was assessed by flow cytometry. In FIG. 4E, neutrophils were pretreated with LTB4 for 60 min. Following this pretreatment, neutrophils were incubated in the presence of CpG-ODN 2216 sequence (5′-G*G*GGGACGATCGTCG*G* G*G*G*G*-3′) (SEQ ID NO:1) that were tagged with cyanine-3 (Cy3) fluorochrome. After an incubation for 4 h with Cy3-CpG-ODN sequences, neutrophils were extensively washed with phosphate buffer and Cy3 expression (corresponding to the degree in CpG-ODN binding on human neutrophils) was assessed by flow cytometry. […]. […]

[4] = system: Influenza A/PR/8/34 H1N1 (IAV); assay: IAV-infected mice: lung viral load, IL-6 and histology; type: in vivo; settings: 50 pfu IAV intranasally; iv. daily for three days, LTB4 1 μg/kg, NacMDP 2 mg/kg; four days post-infection (FIG. 40)
Experimental: In FIG. 39, MEFs were generated and plated as described in Example VII. Cells were infected with IAV (0.1 m.o.i.) alone (−), LTB4 alone (100 nM) or with a combination of LTB4 and NacMDP (0.1 μg/ml) for 24 hours. Following infection, cell culture supernatants were harvested and assayed for viral load determination by standard plaque assay in MDCK cells. For in vivo assessment of the antiviral activity of LTB4 and NacMDP, 4-6 weeks old C57131/6 female mice (n=4/group) were infected intranasally (in.) with 50 plaque-forming units (pfu) of IAV (FIG. 40). Starting at day one post-infection, mice were treated daily for three days with either saline, LTB4 alone (1 μg/kg) or with a combination of LTB4 and NacMDP (2 mg/kg), via the intravenous (iv.) route. Four days post-infection, animals were sacrificed and viral loads were determined from triturated lungs by standard plaque assay in MDCK cells. […] In FIG. 39, * p≦0.05. […]
To further investigate the in vivo consequences associated with the treatment of IAV-infected mice with a combination of LTB4 and the NOD2 agonist NacMDP, 4-6 weeks old C57131/6 female mice (n=4/group) were infected as described in Example IX and treated with either saline or a combination of LTB4 and NacMDP also as described. In FIG. 41, four-day infected animals were sacrificed and IL-6 titers were determined from triturated lungs by ELISA. […]

IAV-infected MEF = type: cell-based, mouse
human neutrophils [5] = assay: TLR9 protein expression by human neutrophils (flow cytometry); type: cell-based
Experimental: as §1

human neutrophils [6] = assay: TLR2 protein expression on human neutrophils (flow cytometry); type: cell-based; settings: LTB4 100 nM, 15-120 min, flow cytometry (FIG. 2)
Experimental: In FIG. 2A, cells were left untreated (1) or were stimulated with LTB4 (100 nM) for 15 (2), 30 (3), 60 (4) or 120 min (5). Cells were then fixed in paraformaldehyde and TLR2 expression was assessed by flow cytometry. Background cellular autofluorescence is represented by the dotted line (6).

human neutrophils [7] = assay: TLR mRNA expression by human neutrophils (RT-PCR); type: cell-based; settings: LTB4 100 nM or 1 μM, two hours
Experimental: Peripheral blood neutrophils or peripheral blood mononuclear cells were isolated from healthy donors and were purified by centrifugation over Ficoll™ separation medium gradient as already described (Larochelle B, Blood. 1998;92:291-299). Human neutrophils (2×10^6) were resuspended in culture medium and stimulated with a placebo solution (0.45% w/v NaCl containing 0.25% w/v dextrose, NS) or LTB4 (100 nM or 1 μM in placebo solution) for two hours. Following stimulation, total RNA was extracted and RT-PCR was performed using specific primers for human TLR2 (FIG. 1) and TLR7-9 (FIG. 3).

RIG-I = assay: RIG-I-dependent promoter activation assay (luciferase) in BLT1-expressing HEK-293T cells; type: cell-based; settings: RIG-I-expressing vector
[8] = system: mouse embryogenic fibroblasts (MEF); type: cell-based; settings: uninfected MEF, 6 hours, NacMDP 0.1, 1 and 10 μg/ml, LTB4 100 nM (FIG. 37)

| SMILES | viral load (in vitro) [1] | NF-κB promoter activity (luciferase) (IPS-1; LTB4 stimulation 24 h (FIG. 30)) | IFN-β promoter activity (luciferase) (IPS-1; LTB4 stimulation 24 h (FIG. 31)) | secretion of IFNβ [2] | CpG-ODN binding on human neutrophils (Cy3 expression) (human neutrophils [3]) | viral load in lungs (in vivo) [4] | IL-6 secretion (IAV-infected MEF) | TLR9 expression compared to LTC4, LTD4, C5a and IL-8 (human neutrophils [5]; 60 min stimulation (FIG. 4C-D)) | TLR9 expression (protein) (human neutrophils [5]; LTB4 100 nM, 15, 30, 60 or 120 min, with or without BLT1 antagonist U75302 10 μM (FIG. 4A-B)) | TLR2 expression (protein) (human neutrophils [6]) | expression of TLR2 mRNA (human neutrophils [7]; RT-PCR (FIG. 1)) | mRNA expression of TLR7-9 (human neutrophils [7]; RT-PCR (FIG. 3)) | NF-κB promoter activity (luciferase) (RIG-I; LTB4 stimulation 24 h (FIG. 28)) | IFN-β promoter activity (luciferase) (RIG-I; LTB4 stimulation 24 h (FIG. 29)) | IL-6 secretion [8] |
| --- | --- | --- | --- | --- | --- | --- | --- | --- | --- | --- | --- | --- | --- | --- | --- |
| CCCCC/C=C\C[C@@H](O)/C=C/C=C/C=C\[C@@H](O)CCCC(=O)O [LTB4, 5S,12R-6,8,10,14(Z,E,E,Z)-eicosatetraenoic acid] | significant decrease in viral load | induces NF-κB as well as IFN-β promoter activity | induces NF-κB as well as IFN-β promoter activity | induces secretion of IFNβ | enhances CpG-ODN binding on human neutrophils in a TLR9-dependent manner | significant decrease in viral load | significantly enhance IL-6 secretion | potent inducer of TLR9 expression | induces TLR9 expression on human neutrophils in a time-dependent manner; also recorded: upregulated TLR2 and TLR9 protein expression | enhanced TLR2 expression; also recorded: upregulated TLR2 and TLR9 protein expression | stimulated by LTB4 in a dose-dependent form | stimulated in a dose-dependent form | enhances NF-κB as well as IFN-β promoter activity | enhances NF-κB as well as IFN-β promoter activity | do not induce significant IL-6 secretion compared to background |
| CC(=O)N[C@H]1C(O)O[C@H](CO)[C@@H](O)[C@@H]1O[C@H](C)C(=O)N[C@@H](C)C(=O)N[C@H](CCC(=O)O)C(N)=O (some centres unmarked) [NacMDP, N-acetyl muramyl dipeptide, reference compound] |  |  |  |  |  |  | significantly enhance IL-6 secretion |  |  |  |  |  |  |  | do not induce significant IL-6 secretion compared to background |
